Experimental data from article PMC7095208 (Nature, 2014).

Columns and labels:
RAVV = conditions: mouse, in vivo
EBOV = conditions: mouse, in vivo

Q: How did the protection (RAVV) turn out when Nc1ncnc2c([C@@H]3N[C@H](CO)[C@@H](O)[C@H]3O)c[nH]c12 [BCX4430, (2S,3S,4R,5R)-2-(4-amino-5H-pyrrolo[3,2-d]pyrimidin-7-yl)-5-(hydroxymethyl)pyrrolidine-3,4-diol] was run?
A: Its protection is 75–100%.

Q: What about the “protection (survival vs vehicle)” value (RAVV) of the same compound?
A: The value was “significant protection”.

Q: And the “protection against lethal EBOV challenge” value (EBOV)?
A: The value was “protected”.
